Patent US10874727B2, “Inducible regulatory t-cell generation for hematopoietic transplants” (The Trustees of the University of Pennsylvania, priority 2008, dated 2020)
Entries after “also recorded” stand apart in the source; their conditions may differ.

Columns and labels:
CD4+25− T cells = test: iTreg generation from CD4+25− T cells cultured with allogeneic TLR9 activated pDCs; type: cell-based, human; settings: IDO inhibition by 1MT in pDC cultures
From the text: (§1) CD4^+25^− T cells, when cultured with allogeneic TLR9 activated allogeneic plasmacytoid dendritic cells (pDCs), but not B-cells, lead to the generation of iTregs, CD4^+25^+FoxP3^+ suppressor cells (FIG. 2). It was also observed that iTregs (closed), but not T cells primed to TLR activated B cells (open squares), were potently suppressive of a naïve MLR culture (x-axis are x 104; MLR used 105 naïve T cells; FIG. 3). […] Since IDO catabolizes tryptophan into kynurenines (KYN), it is believed that iTregs can be generated in B cell cultures using KYN.

naïve MLR culture = test: MLR suppression by iTregs generated in B cell cultures using KYN; type: cell-based, human; settings: KYN added to allogeneic B cell cultures (50 μM elsewhere in the source); not blocked by 1MT
From the text: as §1
It has been shown that CD4^+25^− T-cells exposed to allogeneic TLR9 activated plasmacytoid dendritic cells (pDCs), but not B-cells, leads to the generation of iTregs (Moseman et al., 2004, J Immunol 173:4433-42), CD4^+25^+FoxP3^+ suppressor cells, a process dependent upon the enzyme indoleamine 2,3-dioxygenase (IDO) that catabolizes tryptophan. […] Because obtaining high numbers of non-malignant B-cells or pDCs from leukemia/lymphoma patients would be difficult, low trypt/KYN conditions in an artificial antigen-presenting cell expansion system was examined. In considering strategies for iTreg generation, experiments were designed to focus on molecular features preferentially associated with nTregs vs naïve or T effector cells. […]

CD4+25−45RA+ T cells [1] = test: Expansion of CD4+25−45RA+ T cells in bead- or cell-based artificial APC cultures; design: species or system human
Protocol: (§2) For initial studies, to ensure inducible Treg (iTreg) conversion was being examined and not natural Treg (nTreg) expansion, CD4^+25^−45 RA^+ T cells are isolated from ficolled buffy coat cells by negative selection (CD8, CD11b, CD16, CD19, CD36, CD56 CD25) followed by CD45RA positive selection using beads. Cells are cultured in X-Vivo-15 or trypt-free media, as indicated, along with human ABneg serum (10%) and L-glutamine. rIL-2 (300 U/ml: Chiron) is added on day 2 and with re-feeds.
(§3) To simulate IDO effects, cells were cultured in low tryp+KYN using KYN at 10 μM+trypt at 1 μM until day 7 then 5 μM trypt beyond day 7 to support expansion after iTreg “imprinting” has occurred. Decitibine was added at 1-5 μM (final) to day 3 cultures. Cultures were expanded with anti-CD3/28 mAb-loaded, irradiated KT32 (FcR+) cells. Anti-CD3/28 beads (3 beads:1 cell) or 100 Gy irradiated, anti-CD3 (OKT3) loaded KT64/86 cells (1 KT cell:2 CD4^+25^− T cells) are added on day 0. Cell density is maintained at 0.2-2×10^6/ml by 50% vol/vol re-feeds. By 10 days, diluent cultured cells expanded about 30-fold, decibine about 11 fold and low tryp/KYN about 5-fold; CD4+CD127loFoxP3hi cells were 1%, 16%, and 13%, respectively (FIG. 4; upper, FoxP3hi; lower box, FoxP3int,lo). […] In studies using umbilical cord blood (UCB) nTregs, day 11 cultures re-stimulated with KT cells expanded an additional 20-fold compared to no re-stimulation.
The next set of experiments were designed to compare the effects of a HDACi in a bead- or cell-based artificial antigen-presenting cell system (KT32) for generating iTregs (FIGS. 5B and 5C). […] The cells were cultured for 3 days and SAHA added a single time at the indicated concentrations, and analyzed 7 days later (day 10) for Foxp3 expression (FIG. 5B). […] The cells were cultured for 3 days and Trichostatin A added a single time at the indicated concentrations, and analyzed 7 days later (day 10) for Foxp3 expression.
The next set of experiments were designed to compare the effects of a demethylating agent in a bead- or cell-based artificial antigen-presenting cell system (KT32) for generating iTregs (FIGS. 5D and 5E). […] The cells were cultured for 3 days and Decitibine added a single time at the indicated concentrations, and analyzed 7 days later (day 10) for Foxp3 expression (FIG. 5D). […] The cells were cultured for 3 days and 5-Azacytidine added a single time at the indicated concentrations, and analyzed 7 days later (day 10) for Foxp3 expression (FIG. 5E).
The next set of experiments were designed to compare the effects of the combination of an HDACi with a demethylating agent in a bead- and cell-based antigen-presenting cell system (FIG. 5F). […] On day 7, a single dose of Decitibine (1 μM) was added and cultures analyzed 3 days later (day 10) for Foxp3 expression.

CD4+25−45RA+ T cells [2] = test: iTreg generation: FoxP3 flow phenotype of cultured CD4+25−45RA+ T cells at day 10; type: cell-based, human; settings: for iTreg generation / induction of CD4+127loFoxP3hi cells by day 10: single agents: rapa, TGFb 10 ng/ml, SAHA 300 nM, TSA 100 nM
Protocol: as §2
In order to assay for the presence of non-Tregs and nTregs, multi-color phenotyping can be employed pre- and post-isolation and on days 7, 10, 14, 21 for both non-Tregs and nTregs (CD4/25/127lo/FoxP3) for co-expression of adhesion molecules (e.g., CD62L; LFA-1), chemokine receptors (e.g., CCR4-9; CXCR3), and cytokines (IL2, IL17, TNFa, IL10). Phosphorylated-Stat5 and p-Akt can be analyzed at 15′ post-stimulation with PMA/ionomycin.
as §3
The next set of experiments were designed to compare the effects of a HDACi in a bead- or cell-based artificial antigen-presenting cell system (KT32) for generating iTregs (FIGS. 5B and 5C). Purified human naïve T cells (CD4^+, CD25^−, CD45RA^+) were stimulated with KT32 (K562 engineered to express human CD32) loaded with anti-CD3 and CD28 antibodies. The cells were cultured for 3 days and SAHA added a single time at the indicated concentrations, and analyzed 7 days later (day 10) for Foxp3 expression (FIG. 5B). Purified human naïve T cells (CD4^+, CD25^−, CD45RA^+) were stimulated with KT32 (K562 engineered to express human CD32) loaded with anti-CD3 and CD28 antibodies. The cells were cultured for 3 days and Trichostatin A added a single time at the indicated concentrations, and analyzed 7 days later (day 10) for Foxp3 expression.
The next set of experiments were designed to compare the effects of the combination of an HDACi with a demethylating agent in a bead- and cell-based antigen-presenting cell system (FIG. 5F). Purified human naïve T cells (CD4^+, CD25^−, CD45RA^+) were stimulated with clinical grade anti-CD3/28 beads or with KT32 (K562 engineered to express human CD32) loaded with anti-CD3 and CD28 antibodies. On day 3 of culture, the specified HDACi were added. On day 7, a single dose of Decitibine (1 μM) was added and cultures analyzed 3 days later (day 10) for Foxp3 expression.

CD8+ T cell = test: iTreg suppression of CD8+ T cell proliferation by CFSE dye-dilution; type: cell-based, human; settings: 1:16 ratio
Protocol: as §3
In vitro potency of expanded iTregs vs nTregs may be assayed for suppression in MLR and anti-CD3 mAb driven, CD8+ CFSE T cell proliferation assays.

CD4+25−45RA+ cells = test: Foxp3 expression at day 14 after Decitibine ± TGFβ induction and re-stimulation with anti-CD3 loaded KT64/86; type: cell-based, human; settings: for Foxp3 expression: Decitibine 5 μM day 7 ± TGFβ 10 ng/ml day 0, re-stimulated day 7
Protocol: The next set of experiments was designed to determine whether re-stimulation of iTreg increases the percentage of Foxp3++ cells. nTreg (CD4^+25^++) and CD4^+25^−45 RA^+ cells were purified from peripheral blood (PB) using magnetic beads and the cells were stimulated with anti-CD3 loaded KT64/86 cells (K562 cells modified to express an Fc receptor CD64 and CD86). nTreg were cultured in the presence of IL-2 (300 U/ml) and Rapamycin (109 nM) while CD4^+25^− cells were cultured with IL-2 alone, or were induced to become Treg by the addition of Decitibine (5 μM at day 7) and Rapamycin (109 nM at day 7). Portions of the CD4^+25^−45 RA^+ and Decitibine iTreg cultures were also re-stimulated on day 7 with anti-CD3 loaded KT64/86 cells. After a total of 14 days, cells were harvested and the expression of CD4, CD25, and Foxp3 was measured using flow cytometry. FIG. 6 summarizes the results in the context of percentage of CD4+ gated cells expressing low (Foxp3+) or high (Foxp3++) levels of Foxp3.
The next set of experiments was designed to determine whether TGFβ could synergize the effects of Decitibine to induce Foxp3 expression in the cells. Briefly, nTreg (CD4^+25^++) and CD4^+25^−45 RA^+ cells were purified from peripheral blood using magnetic beads and stimulated with anti-CD3 loaded KT64/86 cells. nTreg were cultured in the presence of IL-2 (300 U/ml) and Rapamycin (109 nM) while CD4^+25^− cells were cultured with IL-2 alone, or were induced to become Treg by the addition of Decitibine (5 μM at day 7) in the presence or absence of TGFβ (10 ng/ml, day 0). All samples were re-stimulated on day 7 with anti-CD3 loaded KT64/86 cells. After a total of 14 days, cells were harvested and expression of CD4, CD25, and Foxp3 was measured using flow cytometry.

CD4+25+ Tregs = test: Expansion of CD4+25+ Tregs with anti-CD3/28 microbeads or KT64/86 cells plus IL-2, with or without rapa; type: cell-based, human
From the text: (§4) Adding rapa, which is an mTOR inhibitor, (labeled as +) reduced mean expansion rates by 30-fold with beads resulting in ≤10-fold mean expansion rates by day 14.

PBMNCs = test: Suppression by expanded Tregs (ratios of Tregs to PBMNCs); type: cell-based, human; settings: TGFβ 10 ng/ml added to the cells
From the text: as §4

Cn1cc(C[C@H](N)C(=O)O)c2ccccc21 [1MT, 1-methyl-tryptophan]
iTreg conversion (CD4+25− T cells): prevented iTreg conversion

Nc1ccccc1C(=O)CC(N)C(=O)O (stereo not shown) [KYN, kynurenine]
MLR suppression / suppressive iTregs (naïve MLR culture): potent MLR suppression; also recorded: potently suppressive iTregs

O=C(CCCCCCC(=O)Nc1ccccc1)NO [SAHA, suberoylanilide hydroxamic acid]
T cell expansion (CD4+25−45RA+ T cells [1]; SAHA 300 nM on day 3): did not inhibit T cell expansion | toxicity in T cell culture (CD4+25−45RA+ T cells [1]; SAHA 100 μM on day 0): toxic | iTreg generation / induction of CD4+127loFoxP3hi cells by day 10 (CD4+25−45RA+ T cells [2]): did not result in iTregs; also recorded: No iTreg generation

CC(/C=C/C(=O)NO)=C\[C@@H](C)C(=O)c1ccc(N(C)C)cc1 [TSA, trichostatin A]
Day 10 expansions (CD4+25−45RA+ T cells [1]; cell-based cultures, HDACi day 3, decitibine day 7, diluent 20-fold): 15 fold | CD4+127loFoxP3hi (CD4+25−45RA+ T cells [2]; bead expanded cultures, day 10, diluent 1.7): 1.6% | FoxP3int/lo (CD4+25−45RA+ T cells [2]; bead expanded cultures, day 10, diluent 21.8%): 15.4% | iTreg generation / induction of CD4+127loFoxP3hi cells by day 10 (CD4+25−45RA+ T cells [2]): No iTreg generation

Nc1ncn([C@H]2C[C@H](O)[C@@H](CO)O2)c(=O)n1 [decitibine, 5-aza-2′-deoxycitidine]
expansion by 10 days (CD4+25−45RA+ T cells [1]; anti-CD3/28 mAb-loaded KT32 cells, decitibine 1-5 μM day 3, KYN 10 μM + trypt 1 μM until day 7 then 5 μM): about 11 fold | CD4+CD127loFoxP3hi cells (CD4+25−45RA+ T cells [2]; by 10 days, KT32 cultures, decitibine 1-5 μM day 3 or low tryp+KYN): 16% | iTreg suppression of CD8+ T cell proliferation (CD8+ T cell): 41% | percentage of Foxp3++ cells (CD4+25−45RA+ cells; Decitibine 5 μM and Rapamycin 109 nM at day 7, re-stimulation on day 7): significantly increased | Foxp3 expression (CD4+25−45RA+ cells): some Foxp3 expression

CO[C@H]1C[C@@H]2CC[C@@H](C)[C@@](O)(O2)C(=O)C(=O)N2CCCC[C@H]2C(=O)O[C@H]([C@H](C)C[C@@H]2CC[C@@H](O)[C@H](OC)C2)CC(=O)[C@H](C)/C=C(\C)[C@@H](O)[C@@H](OC)C(=O)[C@H](C)C[C@H](C)/C=C/C=C/C=C/1C [rapa, rapamycin]
reduction of mean expansion (CD4+25+ Tregs; Rapa added to KT64/86 driven cultures): 10 fold | reduction of mean expansion rates (CD4+25+ Tregs; rapa added, anti-CD3/28 beads): 30 fold | mean expansion rates by day 14 (CD4+25+ Tregs; rapa added, anti-CD3/28 beads, day 14): ≤ 10 fold

transforming growth factor-beta [TGFβ]
suppression (PBMNCs): did not increase suppression | Foxp3 expression (CD4+25−45RA+ cells): synergizes with Decitibine to induce Foxp3 expression
